Experimental data reported in article PMC13233820, “Recruitment of Mre11 to recombination sites during meiosis” (Nature Communications, 2026).

Key:
MRX condensates = format: biochemical, Saccharomyces cerevisiae; conditions: 5% 1,6-hexanediol, ten-minute treatment
Procedure: Experiments were performed without PEG. b, d Effect of DNase I, in the absence of PEG, on (b) Mre11 (n = 9 (no treatment) and 11 (DNase I)) and (d) MRX (n = 9 (no treatment) and 11 (DNase I)) condensates. Condensates were pre-assembled for 20 min with 5.7 nM pUC19 prior to challenge. Quantification represents total foci intensity (green) in a field of view and total number of foci per 1000 µm^2 (magenta). Foci intensity is normalized to the mean intensity of samples with DNA for (a, c) and untreated samples for (b, d). Error bars represent mean ± SD from the indicated (n) fields of view. e, f Effect of the presence of 5% PEG-3350 on (e) Mre11 (n = 12) and (f) MRX (n = 11) condensate formation. Quantification represents total foci intensity (green) in a field of view (normalized to the mean of + PEG images) and total number of foci per 1000 µm^2 (magenta). Error bars represent mean ± SD from the indicated (n) fields of view. g–j Effect of challenge with 5% 1,6-hexanediol and 0.5 M NaCl on (g, h) Mre11 and (i, j) MRX condensates. Condensates were assembled for 20 min prior to challenge and incubated for 15 min and 10 min, respectively, after challenge. […]
(§1) Proteins were diluted to a 10 × stock of their appropriate working concentrations in their respective storage buffers. […] Images were analyzed with ImageJ using a custom-made script. […] Data were analyzed using Graphpad Prism 10.4.0.

[1] = test system: MMS-induced Mre11^myc foci in vegetatively growing yeast; experiment: Immunofluorescence of MMS-induced Mre11myc foci, vegetative yeast nuclear spreads; format: cell-based, Saccharomyces cerevisiae
Procedure: (§2) Following standard protocols, strains were patched on YPG plates, mated and streaked on YPD plates, and selected diploid colonies grown in liquid YPD at 30 °C, 250 rpm, overnight. For meiotic synchronization, diploid cultures grown overnight in YPD were transferred to YPA (1% yeast extract, 2% peptone, 1% potassium acetate) at OD600 0.2 and grown for 12–14 h at 30 °C, 250 rpm. Once the cultures reached OD600 between 1.2–1.6, cells were washed once with prewarmed sterile water and immediately transferred to sporulation medium supplemented with amino acids (320 µL amino acid complementation media for 100 mL of sporulation media (SPM)) and were kept shaking at 30 °C, 250 rpm during the entire meiotic time-course. For MMS and CPT (Sigma) sensitivity assays, serial dilutions of overnight cultures were spotted on freshly prepared YPD-MMS or YPD-CPT plates containing the indicated percentage of MMS or CPT, respectively. Plates were grown for two days at 30 °C. For immunofluorescence of vegetatively growing cells, overnight cultures were refreshed by diluting to OD600 0.2 and grown for 3-4 hours to reach OD600 1.2–1.4 before subjecting to MMS or MMS followed by 5% 1,6-hexanediol treatment. For 5% 1,6-hexanediol treatment, cells were first converted to spheroplasts and then treated with 5% 1,6-hexanediol for 4-5 min. Spheroplasts were then immediately washed, lysed, and fixed using the protocol described below.
Meiotic cultures were harvested 4 h after transfer to SPM, washed with sterile cold water, and resuspended in 1 M sorbitol, 1 × PBS (pH 7), 10 mM DTT, 0.5 mg/ml zymolyase 20 T, and incubated for 30 mins at 30 °C with gentle shaking. […]
(§3) Slides were blocked with 90% FBS, 1 × PBS for 1 h at room temperature in a humid chamber and then incubated with primary antibody (mouse mAb anti-myc, 1:200 (2276S, Cell Signaling Technology), rabbit anti-phospho H2A-S129, 1:200 (ab15083, abcam)) diluted in 3% BSA, 1 × PBS in a humid chamber for 2 h at 37 °C or overnight at 4 °C. […] Images were captured on a Zeiss Axio Observer with a 100 ×/1.4 NA oil immersion objective and were analyzed in ImageJ.

Mre11 condensates = format: biochemical, Saccharomyces cerevisiae; conditions: 5% 1,6-hexanediol, ten-minute treatment
Procedure: Experiments were performed without PEG. b, d Effect of DNase I, in the absence of PEG, on (b) Mre11 (n = 9 (no treatment) and 11 (DNase I)) and (d) MRX (n = 9 (no treatment) and 11 (DNase I)) condensates. Condensates were pre-assembled for 20 min with 5.7 nM pUC19 prior to challenge. Quantification represents total foci intensity (green) in a field of view and total number of foci per 1000 µm^2 (magenta). Foci intensity is normalized to the mean intensity of samples with DNA for (a, c) and untreated samples for (b, d). Error bars represent mean ± SD from the indicated (n) fields of view. e, f Effect of the presence of 5% PEG-3350 on (e) Mre11 (n = 12) and (f) MRX (n = 11) condensate formation. Quantification represents total foci intensity (green) in a field of view (normalized to the mean of + PEG images) and total number of foci per 1000 µm^2 (magenta). Error bars represent mean ± SD from the indicated (n) fields of view. g–j Effect of challenge with 5% 1,6-hexanediol and 0.5 M NaCl on (g, h) Mre11 and (i, j) MRX condensates. […] In the control reaction, an equivalent volume (1/20) of water was added instead of hexanediol. […]
as §1

meiotic Mre11^myc foci = experiment: Immunofluorescence of meiotic Mre11myc foci, yeast nuclear spreads; format: cell-based, Saccharomyces cerevisiae; conditions: brief exposure to 1,6-hexanediol, prophase I spreads
Procedure: as §2, with “Plates were grown for two days at 30 °C. For immunofluorescence of vegetatively growing cells, overnight cultures were refreshed by diluting to OD600 0.2 and grown for 3-4 hours to reach OD600 1.2–1.4 before subjecting to MMS or MMS followed by 5% 1,6-hexanediol treatment. For 5% 1,6-hexanediol treatment, cells were first converted to spheroplasts and then treated with 5% 1,6-hexanediol for 4-5 min. Spheroplasts were then immediately washed, lysed, and fixed using the protocol described below.” left out
as §3

Mer2 condensates = experiment: Colocalization of fluorescently-labeled Mer2 and Mre11 condensates; format: binding, Saccharomyces cerevisiae; conditions: 800 nM mScarlet-Mre11-C49 with 200 nM eGFP-Mer2, 30 min
Procedure: Fig. 4 Mer2 recruits Mre11 during meiosis. a Effect of 1,6-hexanediol treatment on meiotic Mre11^myc foci visualized by immunofluorescence analysis of yeast nuclear spreads 4 hours after transfer to SPM. […] At least 22 tetrads were dissected for each strain (n ≥ 88 spores). e Quantification of sub-population of cells showing discrete Mre11 foci and aggregated Mre11 foci in indicated strains. Images used for analysis were from the same experiments in (b) and (d). f Colocalization of fluorescently-labeled Mer2 with wild-type or truncated Mre11. […] The number of images analyzed for each sample were WT (n = 11), Mre11^Δ10-270 (n = 13), Mre11^Δ290-472 (n = 15), Mre11^ΔIDR (n = 10), Mre11^ΔC49 (n = 13). Error bars represent mean ± SD from the indicated (n) fields of view. p-values compared to Mre11-WT are: Mre11^Δ10-270 (0.006), Mre11^Δ290-472 (0.0003), Mre11^ΔIDR (<0.0001), Mre11^ΔC49 (<0.0001). g Colocalization of fluorescently-labeled Mre11-C49 and Mer2. Condensates were assembled by mixing 800 nM of ^mScarletMre11-C49 and 200 nM of ^eGFPMer2 for 30 min prior to imaging. […]
Proteins were diluted to a 10 × stock of their appropriate working concentrations in their respective storage buffers. […] Images were analyzed with ImageJ using a custom-made script. […] Masked foci were counted, and the intensity inside the focus mask was integrated. […] Data were analyzed using Graphpad Prism 10.4.0.

Mer2 = experiment: Yeast two-hybrid; format: binding, Saccharomyces cerevisiae; conditions: SC-Leu-Ura-His + 25 mM 3-AT
Procedure: Bait and prey plasmids were co-transformed into yWL365 using the standard ‘LiAc’-based transformation and plated on SC-Leu-Ura selective media. At least four independent transformants were tested for Mer2-Mre11 interaction by spotting a dilution series on SC-Leu- Ura-His + 25 mM 3-AT (3-amino-1,2,4-triazole) and growing for 4-5 days at 30 °C.

HisSUMO-Mer2 (wild type) = experiment: Co-expression pull-down assay (NiNTA, anti-MBP immunoblot); format: binding, Saccharomyces cerevisiae; conditions: co-expressed in E. coli
Procedure: Wild-type and mutant MBP-tagged Mre11-C49 and HisSUMO-tagged Mer2 were co-expressed in 50 mL of E. coli BL21 cultures and purified by affinity chromatography on Ni-NTA resin following a procedure similar to that described above. Briefly, cells were lysed by sonication and centrifuged at maximum speed for 30 mins at 4 °C on a table-top centrifuge. A small fraction of the supernatant was collected as ‘Input’ and the remainder was incubated with 120 µL Ni-NTA resin, pre-equilibrated with wash buffer (25 mM HEPES pH 7.5, 20 mM imidazole, 0.1 mM DTT, 0.1 mM PMSF, 10% glycerol), for 1 hour on a rotating wheel at 4 °C. The resin was washed twice with 2 ml in batch and five times with 2 ml on column before eluting with 250 µL of 500 mM imidazole in wash buffer. Input and elution fractions were separated by SDS-PAGE followed by immunoblotting with primary murine anti-MBP monoclonal antibody at 1:10,000 dilution (E8032S, NEB) and secondary goat anti-mouse IgG-HRP conjugated at 1:10,000 dilution (AP308P, Chemicon).

Mer2 coiled-coil = experiment: ITC Mre11-C49 / Mer2 coiled-coil; format: binding, Saccharomyces cerevisiae; conditions: Mre11-C49 titrated into Mer2 coiled-coil; peer review file

Molecule	Effect on MRX foci intensity (in words) (MRX condensates)	Effect on MMS-induced Mre11 foci (in words) ([1]; 5% 1,6-hexanediol, 4-5 min)	Percentage of aggregates ([1]; MMS + 5% 1,6-hexanediol 4-5 min)	Effect on Mre11 foci intensity (in words) (Mre11 condensates)	Effect on meiotic Mre11 foci (in words) (meiotic Mre11^myc foci)	Localization around Mer2 condensates (in words) (Mer2 condensates)	Yeast two-hybrid interaction with Mer2 (in words) (Mer2)	Interaction with Mer2 in pulldown (in words) (HisSUMO-Mer2 (wild type))	ITC result (Mer2 coiled-coil)
OCCCCCCO [1,6-hexanediol]	strong reduction in foci intensity	readily dissolved MMS-induced foci	100	strong reduction in foci intensity	disassembles these foci				
SYGLLNGRKTKTKTRSAASTKTASRRGKGRASRTPKTDILGSLLAKKRK [Mre11-C49, Mre11 C-terminal residues 644–692]						forms a halo-like structure around Mer2 condensates	not sufficient for Mer2 binding	directly binds Mer2	inconclusive
